Literature values, collected in US12194028B2 (Slayback Pharma LLC, priority 2022, dated 2025).

aqueous solubility (in water): 40 to 50 µg/mL
solubility (throughout physiological pH range of 1.0-8.0): very low
SMILES: COc1ccc(-n2nc(C(N)=O)c3c2C(=O)N(c2ccc(N4CCCCC4=O)cc2)CC3)cc1 [apixaban, 1-(4-methoxyphenyl)-7-oxo-6-[4-(2-oxopiperidin-1-yl)phenyl]-4,5-dihydropyrazolo [3,4-c] pyridine-3-carboxamide]
